Measurements reported in ChEMBL document CHEMBL1201862, “PubChem BioAssay data set” (2004).
The source made the active and inactive calls.

Legend:
[1] = molecular target: Beta-2 adrenergic receptor (Homo sapiens, UniProt P07550); experiment: ADRB2 activation measured by internalization – cell-based, FAP fluorogen, flow cytometry, cherry pick 1, dose response (AID 588763); format: functional
[2] = molecular target: T1, Kappa-type opioid receptor (Homo sapiens, UniProt P41145); format: functional
T1 sequence (P41145 whole entry): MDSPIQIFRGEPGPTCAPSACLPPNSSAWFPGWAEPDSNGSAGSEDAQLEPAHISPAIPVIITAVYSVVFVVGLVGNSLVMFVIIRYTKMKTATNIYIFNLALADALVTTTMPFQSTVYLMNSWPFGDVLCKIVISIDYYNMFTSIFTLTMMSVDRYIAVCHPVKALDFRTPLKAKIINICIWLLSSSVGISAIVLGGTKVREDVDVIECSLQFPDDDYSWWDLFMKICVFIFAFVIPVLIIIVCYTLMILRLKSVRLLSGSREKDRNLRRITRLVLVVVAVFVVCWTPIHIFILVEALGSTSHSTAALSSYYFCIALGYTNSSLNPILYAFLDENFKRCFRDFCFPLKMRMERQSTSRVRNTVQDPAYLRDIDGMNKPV

[3] = molecular target: T2, Delta-type opioid receptor (Homo sapiens, UniProt P41143); experiment: HTS Image-Based Screen for Agonists of the DOR Receptor. [Related pubchem assays (depositor defined):AID1777, AID1786, AID2133]; format: functional
T2 sequence (P41143 whole entry): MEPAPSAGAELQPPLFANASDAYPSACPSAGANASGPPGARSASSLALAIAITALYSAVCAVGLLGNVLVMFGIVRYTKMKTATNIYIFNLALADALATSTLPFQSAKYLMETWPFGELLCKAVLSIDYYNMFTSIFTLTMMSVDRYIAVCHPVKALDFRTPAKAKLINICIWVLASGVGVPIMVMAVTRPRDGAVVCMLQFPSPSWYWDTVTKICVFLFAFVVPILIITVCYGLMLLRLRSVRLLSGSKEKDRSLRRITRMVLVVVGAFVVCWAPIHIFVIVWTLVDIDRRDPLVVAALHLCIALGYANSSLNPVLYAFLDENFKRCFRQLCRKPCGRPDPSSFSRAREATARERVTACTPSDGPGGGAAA

[4] = molecular target: T2, Delta-type opioid receptor; experiment: HTS Image-Based Screen for Antagonists of the DOR Receptor. [Related pubchem assays (depositor defined):AID1777, AID1785, AID1786, AID2133]; format: functional
Beta-galactosidase [5] = molecular target: T3, Beta-galactosidase (Escherichia coli, UniProt Q8VNN2); format: functional
T3 sequence (Q8VNN2 whole entry): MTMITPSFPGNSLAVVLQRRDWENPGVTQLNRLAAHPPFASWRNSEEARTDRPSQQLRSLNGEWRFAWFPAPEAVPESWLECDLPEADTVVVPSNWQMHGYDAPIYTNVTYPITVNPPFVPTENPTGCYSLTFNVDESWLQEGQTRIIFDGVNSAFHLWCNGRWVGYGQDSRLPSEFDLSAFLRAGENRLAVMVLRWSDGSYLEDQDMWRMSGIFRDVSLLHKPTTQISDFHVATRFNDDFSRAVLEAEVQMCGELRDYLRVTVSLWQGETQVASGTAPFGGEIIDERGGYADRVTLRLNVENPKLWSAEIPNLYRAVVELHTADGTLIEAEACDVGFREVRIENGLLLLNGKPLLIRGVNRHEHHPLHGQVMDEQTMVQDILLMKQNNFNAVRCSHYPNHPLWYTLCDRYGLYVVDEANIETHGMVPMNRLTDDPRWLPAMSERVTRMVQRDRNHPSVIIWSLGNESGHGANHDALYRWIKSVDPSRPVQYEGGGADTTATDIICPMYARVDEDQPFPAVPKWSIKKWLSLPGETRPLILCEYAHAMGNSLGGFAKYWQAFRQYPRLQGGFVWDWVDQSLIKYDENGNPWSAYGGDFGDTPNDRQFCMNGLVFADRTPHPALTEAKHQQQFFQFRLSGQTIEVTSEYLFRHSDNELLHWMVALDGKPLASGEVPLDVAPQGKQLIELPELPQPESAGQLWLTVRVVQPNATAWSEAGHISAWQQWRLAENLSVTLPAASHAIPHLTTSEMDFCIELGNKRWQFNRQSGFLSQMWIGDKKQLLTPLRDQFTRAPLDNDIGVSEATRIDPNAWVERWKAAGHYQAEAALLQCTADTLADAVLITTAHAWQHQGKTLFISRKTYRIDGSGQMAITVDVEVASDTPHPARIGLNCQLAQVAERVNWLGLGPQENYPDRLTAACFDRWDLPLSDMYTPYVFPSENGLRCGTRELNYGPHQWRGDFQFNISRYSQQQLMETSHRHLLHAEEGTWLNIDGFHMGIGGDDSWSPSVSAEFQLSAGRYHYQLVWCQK

[6] = molecular target: T1, Kappa-type opioid receptor; format: functional; remark: listed apart in the source
Mu-type opioid receptor = Mu-type opioid receptor (Homo sapiens, UniProt P35372); experiment: HTS Image-Based Screen for Agonists of the MOR Receptor. [Related pubchem assays (depositor defined):AID1777, AID1785, AID1786, AID2133]; format: functional;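 further: imaging of beta-arrestin GFP recruitment into spots after receptor activation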
Mu-type opioid receptor, sequence (P35372 whole entry): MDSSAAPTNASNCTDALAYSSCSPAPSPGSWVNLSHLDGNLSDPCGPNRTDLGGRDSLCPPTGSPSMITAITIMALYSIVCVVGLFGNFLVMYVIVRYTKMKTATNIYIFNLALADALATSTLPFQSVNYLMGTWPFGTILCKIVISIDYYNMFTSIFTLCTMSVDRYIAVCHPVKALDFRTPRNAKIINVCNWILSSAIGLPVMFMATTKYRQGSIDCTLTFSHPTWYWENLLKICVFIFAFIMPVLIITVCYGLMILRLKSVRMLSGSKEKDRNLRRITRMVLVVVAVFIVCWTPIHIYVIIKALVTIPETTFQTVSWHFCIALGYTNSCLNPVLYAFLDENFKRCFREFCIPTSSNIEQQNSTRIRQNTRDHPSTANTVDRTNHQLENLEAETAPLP

[7] = MIN6 cell viability loss – mouse insulinoma, cytotoxicity control, dose response (AID 2122); format: functional;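 further: confirmatory high-throughput counterscreen run to flag cytotoxic compounds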
[8] = decrease of insulin promoter-GFP reporter – imaging, high-content screening, mouse beta cells (AID 1628); format: functional; conditions: MIN6
Cytochrome P450 2C19 = Cytochrome P450 2C19 (Homo sapiens, UniProt P33261); experiment: Cytochrome panel assay with activity outcomes. Panel member name: p450-cyp2c19 Compounds with AC50 equal or less than 10 uM are considered active; format: functional
Cytochrome P450 2C19, sequence (P33261 whole entry): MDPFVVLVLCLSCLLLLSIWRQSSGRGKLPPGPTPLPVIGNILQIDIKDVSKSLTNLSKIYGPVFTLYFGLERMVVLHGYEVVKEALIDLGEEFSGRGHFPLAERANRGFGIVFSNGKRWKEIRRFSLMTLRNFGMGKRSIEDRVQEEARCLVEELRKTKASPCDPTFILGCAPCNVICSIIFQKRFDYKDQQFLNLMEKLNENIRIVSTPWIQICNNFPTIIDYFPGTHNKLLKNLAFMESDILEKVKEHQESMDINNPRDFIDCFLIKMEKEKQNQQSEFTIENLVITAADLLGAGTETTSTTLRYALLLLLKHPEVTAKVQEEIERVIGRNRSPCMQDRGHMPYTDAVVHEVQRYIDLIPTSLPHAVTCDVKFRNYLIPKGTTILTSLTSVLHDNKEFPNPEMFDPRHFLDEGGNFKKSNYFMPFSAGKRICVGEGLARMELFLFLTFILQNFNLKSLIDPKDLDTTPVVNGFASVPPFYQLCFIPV

Cytochrome P450 2C9 [9] = molecular target: T4, Cytochrome P450 2C9 (Homo sapiens, UniProt P11712)
T4 sequence (P11712 whole entry): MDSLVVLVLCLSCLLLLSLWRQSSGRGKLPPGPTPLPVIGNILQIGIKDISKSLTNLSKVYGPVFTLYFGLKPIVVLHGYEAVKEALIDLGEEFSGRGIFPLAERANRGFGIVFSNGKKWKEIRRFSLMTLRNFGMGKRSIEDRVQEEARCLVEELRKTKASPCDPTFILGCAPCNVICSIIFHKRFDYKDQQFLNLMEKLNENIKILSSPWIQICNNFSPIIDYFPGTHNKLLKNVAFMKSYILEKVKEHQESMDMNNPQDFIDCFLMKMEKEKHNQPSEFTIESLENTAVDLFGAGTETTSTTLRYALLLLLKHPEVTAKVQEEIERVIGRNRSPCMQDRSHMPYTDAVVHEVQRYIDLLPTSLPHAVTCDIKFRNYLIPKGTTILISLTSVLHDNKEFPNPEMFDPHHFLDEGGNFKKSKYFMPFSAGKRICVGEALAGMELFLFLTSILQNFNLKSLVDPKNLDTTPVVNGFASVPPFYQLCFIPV

Cytochrome P450 1A2 = molecular target: T5, Cytochrome P450 1A2 (Homo sapiens, UniProt P05177);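 further: PubChem cytochrome P450 panel assay, CYP1A2 panel member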
T5 sequence (P05177 whole entry): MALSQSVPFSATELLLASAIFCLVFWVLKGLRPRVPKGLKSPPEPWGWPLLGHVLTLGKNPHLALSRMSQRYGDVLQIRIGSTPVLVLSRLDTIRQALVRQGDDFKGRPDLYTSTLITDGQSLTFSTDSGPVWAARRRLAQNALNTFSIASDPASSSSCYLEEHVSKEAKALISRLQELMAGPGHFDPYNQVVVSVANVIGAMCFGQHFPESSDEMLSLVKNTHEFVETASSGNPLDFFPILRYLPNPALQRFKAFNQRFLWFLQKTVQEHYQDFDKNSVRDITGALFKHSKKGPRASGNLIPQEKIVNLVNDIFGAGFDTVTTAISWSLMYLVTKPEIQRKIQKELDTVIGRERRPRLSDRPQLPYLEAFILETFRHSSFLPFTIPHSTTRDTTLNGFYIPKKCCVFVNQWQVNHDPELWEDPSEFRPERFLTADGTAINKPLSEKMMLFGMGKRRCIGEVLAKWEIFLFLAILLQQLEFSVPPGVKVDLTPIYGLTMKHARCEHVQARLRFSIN

HEK293 [10] = experiment: HEK293T cell viability loss, resazurin readout – resazurin fluorescence, cytotoxicity control for NF-kB activator project, SAR follow-up (AID 493251); format: functional, cell-based; conditions: Homo sapiens
HEK293 [11] = experiment: SAR Analysis of small molecule inhibitors of T-cell specific antigen receptor-induced NF-kB activation in a HEK-293T cell line using a luminescence assay - Set 2. [Related pubchem assays (depositor defined):AID435003, AID435012, AID489026]; format: functional, cell-based; conditions: Homo sapiens
Jurkat = experiment: SAR Analysis of small molecule inhibitors of T-cell specific antigen receptor-induced NF-kB activation in a Jurkat cell line using a luminescence assay - Set 2. [Related pubchem assays (depositor defined):AID435003, AID435012, AID465]; format: functional, cell-based; conditions: Homo sapiens
Cytochrome P450 2C9 [12] = molecular target: T4, Cytochrome P450 2C9; remark: listed apart in the source
[13] = HEK-293T cell viability reduction – luminescence, B-cell screen hits, cytotoxicity control for BCR NF-kB inhibitor project, dose response (AID 489021); format: functional, cell-based;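 further: HEK-293T cells carrying an NF-kB luciferase reporter; cells exposed to compound for about 14 hours before viability readout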
Beta-galactosidase [14] = molecular target: T3, Beta-galactosidase; experiment: detection-enzyme interference by beta-gal modulators – biochemical, E. coli enzyme, set 3, artefact control for CCR6 antagonist project, dose response (AID 504712); format: functional
[15] = Trypanosoma cruzi growth suppression in host cells – NIH3T3 host cells, beta-gal luminescence, confirmation (AID 2044); format: functional, cell-based;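 further: intracellular parasites grown in NIH/3T3 mouse fibroblasts as host cells; luminescent beta-galactosidase reporter signal from transgenic T. cruzi replicating inside host cells; inhibitors lower the luminescence signal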
A-375 [16] = experiment: proliferation inhibition in MITF-low A375 cells – cell-based, cherry-pick samples, set 2, counter-screen for MITF modulator project, dose response (AID 540335); format: functional; conditions: Homo sapiens
[17] = molecular target: T6, Microphthalmia-associated transcription factor (Homo sapiens, UniProt O75030); experiment: reducers of TRPM1 reporter luminescence, concentration series – cell-based, SK-MEL-5, cherry-picked, set 3, MITF inhibitor project, dose response (AID 493073); format: functional;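 further: SK-MEL-5 melanoma cells with luciferase driven by the MITF target TRPM1 promoter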
T6 sequence (O75030 whole entry): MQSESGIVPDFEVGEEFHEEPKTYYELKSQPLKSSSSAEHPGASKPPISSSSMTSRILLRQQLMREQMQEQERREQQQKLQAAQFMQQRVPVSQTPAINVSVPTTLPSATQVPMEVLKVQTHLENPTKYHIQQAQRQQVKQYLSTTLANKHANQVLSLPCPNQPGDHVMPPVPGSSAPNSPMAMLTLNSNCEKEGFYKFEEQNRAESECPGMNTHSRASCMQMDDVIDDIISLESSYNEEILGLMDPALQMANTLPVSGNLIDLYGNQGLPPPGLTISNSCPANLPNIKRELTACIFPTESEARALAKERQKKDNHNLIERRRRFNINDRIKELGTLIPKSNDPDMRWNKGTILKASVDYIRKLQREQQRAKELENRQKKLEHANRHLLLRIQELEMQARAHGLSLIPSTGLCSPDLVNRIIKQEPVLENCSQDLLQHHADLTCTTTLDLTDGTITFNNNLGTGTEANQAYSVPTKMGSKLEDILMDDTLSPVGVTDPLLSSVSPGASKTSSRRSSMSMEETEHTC

[18] = NIH3T3 cell viability loss – ATP luminescence, mouse fibroblasts, counter-screen, dose response (AID 2010); format: functional, cell-based;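 further: cells exposed to compound for about 90 hours before reading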
HEK293 [19] = experiment: cells; format: functional, cell-based; conditions: Homo sapiens
[20] = molecular target: T7, Nuclear receptor subfamily 0 group B member 1 (Homo sapiens, UniProt P51843); experiment: Luminescence-based cell-based high throughput dose response assay for inhibitors of the orphan nuclear receptor subfamily 0, group B, member 1 (DAX1; NR0B1). [Related pubchem assays (depositor defined):AID504766, AID504790]; format: functional
T7 sequence (P51843 whole entry): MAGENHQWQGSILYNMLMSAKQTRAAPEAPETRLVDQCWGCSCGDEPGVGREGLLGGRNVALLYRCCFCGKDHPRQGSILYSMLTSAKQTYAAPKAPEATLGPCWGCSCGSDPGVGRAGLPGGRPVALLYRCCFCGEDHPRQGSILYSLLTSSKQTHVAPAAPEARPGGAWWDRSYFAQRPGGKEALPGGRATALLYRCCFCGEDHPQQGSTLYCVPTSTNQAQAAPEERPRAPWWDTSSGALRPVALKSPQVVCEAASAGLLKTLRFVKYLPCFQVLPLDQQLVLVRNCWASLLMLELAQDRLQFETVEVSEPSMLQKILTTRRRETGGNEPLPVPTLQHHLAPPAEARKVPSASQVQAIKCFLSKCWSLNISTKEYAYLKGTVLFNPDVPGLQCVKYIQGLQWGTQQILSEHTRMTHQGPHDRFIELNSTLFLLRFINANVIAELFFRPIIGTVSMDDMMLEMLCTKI

Phosphomannomutase 2 = Phosphomannomutase 2 (Homo sapiens, UniProt O15305); experiment: Counter screen SAR assay for PMM2 inhibitors via a fluorescence intensity assay. [Related pubchem assays (depositor defined):AID1545, AID1574]
[21] = molecular target: T8, Mannose-6-phosphate isomerase (Homo sapiens, UniProt P34949); experiment: phosphomannose isomerase inhibition – biochemical, fluorescence intensity, confirmation (AID 1535)
T8 sequence (P34949 whole entry): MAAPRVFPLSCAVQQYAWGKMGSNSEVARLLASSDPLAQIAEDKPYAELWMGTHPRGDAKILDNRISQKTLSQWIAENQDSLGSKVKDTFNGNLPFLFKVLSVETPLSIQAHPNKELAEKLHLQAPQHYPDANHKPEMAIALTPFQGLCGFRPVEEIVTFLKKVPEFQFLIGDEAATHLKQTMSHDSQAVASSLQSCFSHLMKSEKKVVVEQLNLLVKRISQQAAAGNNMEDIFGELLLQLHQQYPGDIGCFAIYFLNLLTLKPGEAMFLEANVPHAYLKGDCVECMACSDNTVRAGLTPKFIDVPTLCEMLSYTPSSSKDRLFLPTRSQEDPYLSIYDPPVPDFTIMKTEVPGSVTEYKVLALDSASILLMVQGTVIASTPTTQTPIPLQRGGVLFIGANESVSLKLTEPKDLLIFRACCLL

A-375 [22] = experiment: MITF: Counter assay: A375 proliferation Measured in Cell-Based System Using Plate Reader - 2084-03_Inhibitor_Dose_DryPowder_Activity. [Related pubchem assays (depositor defined):AID488944]; format: functional; conditions: Homo sapiens
Cytochrome P450 2D6 = Cytochrome P450 2D6 (Homo sapiens, UniProt P10635);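 further: CYP2D6 member of a cytochrome P450 panel assay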
[23] = molecular target: Lysine-specific demethylase 4C (Homo sapiens, UniProt Q9H3R0); experiment: inhibition of JMJD2C H3K9me3 demethylation – biochemical, DELFIA europium, cherry-picked samples, dose response (AID 488835); format: functional
Nonstructural protein 1 = Nonstructural protein 1 (Influenza A virus, UniProt Q194T2); format: functional, Influenza A virus (A/California/07/2009(H1N1))
Nonstructural protein 1, sequence (Q194T2 whole entry): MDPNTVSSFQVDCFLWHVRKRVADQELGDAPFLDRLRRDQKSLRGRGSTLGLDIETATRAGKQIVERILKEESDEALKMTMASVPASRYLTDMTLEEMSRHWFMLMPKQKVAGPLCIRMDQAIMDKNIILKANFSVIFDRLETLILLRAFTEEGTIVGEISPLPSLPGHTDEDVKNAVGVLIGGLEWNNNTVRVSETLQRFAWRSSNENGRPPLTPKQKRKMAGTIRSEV

[24] = NIH-3T3 fibroblast cytotoxicity, dose response, cytotoxicity control, cell-based, fluorescence, Alamar Blue, secondary assay (AID 2327); format: functional;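 further: NIH-3T3 mouse fibroblasts cultured with fluconazole at 8 µg/mL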
SUMO E1/E2 = SUMO E1/E2 (Homo sapiens, UniProt P63279+Q9UBE0+Q9UBT2); experiment: SAR analysis of SUMOylation using HTRF in an in-Vitro dose response assay. [Related pubchem assays (depositor defined):AID2006, AID2011, AID2018, AID2069, AID2658]; format: functional
SUMO E1/E2, sequence (Q9UBE0 whole entry): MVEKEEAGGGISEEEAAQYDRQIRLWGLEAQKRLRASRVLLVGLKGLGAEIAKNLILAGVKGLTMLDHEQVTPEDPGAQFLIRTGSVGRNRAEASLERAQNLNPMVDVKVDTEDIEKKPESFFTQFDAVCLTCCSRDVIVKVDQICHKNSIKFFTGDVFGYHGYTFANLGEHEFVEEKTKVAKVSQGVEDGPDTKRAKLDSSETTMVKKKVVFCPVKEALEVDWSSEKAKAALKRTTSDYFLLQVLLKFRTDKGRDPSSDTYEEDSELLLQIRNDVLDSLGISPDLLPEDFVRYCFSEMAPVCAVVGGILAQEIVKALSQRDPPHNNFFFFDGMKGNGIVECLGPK
SUMO E1/E2, sequence (Q9UBT2 whole entry): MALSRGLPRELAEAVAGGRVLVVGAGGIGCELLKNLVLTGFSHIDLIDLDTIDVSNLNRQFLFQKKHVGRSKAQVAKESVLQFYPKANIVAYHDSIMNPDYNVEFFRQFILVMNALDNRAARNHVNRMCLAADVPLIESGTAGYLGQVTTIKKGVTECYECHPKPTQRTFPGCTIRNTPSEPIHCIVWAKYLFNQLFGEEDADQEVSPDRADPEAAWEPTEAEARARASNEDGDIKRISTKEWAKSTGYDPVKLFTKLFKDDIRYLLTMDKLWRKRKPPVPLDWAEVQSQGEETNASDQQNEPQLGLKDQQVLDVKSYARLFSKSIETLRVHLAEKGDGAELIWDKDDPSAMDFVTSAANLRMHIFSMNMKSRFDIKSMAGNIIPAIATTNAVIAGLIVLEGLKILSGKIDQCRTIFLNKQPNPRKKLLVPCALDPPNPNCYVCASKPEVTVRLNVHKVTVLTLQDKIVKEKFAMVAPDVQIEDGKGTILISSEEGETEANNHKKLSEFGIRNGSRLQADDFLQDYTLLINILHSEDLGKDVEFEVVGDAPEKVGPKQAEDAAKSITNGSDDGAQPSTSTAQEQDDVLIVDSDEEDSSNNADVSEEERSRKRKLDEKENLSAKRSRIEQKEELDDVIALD
SUMO E1/E2, sequence (P63279 whole entry): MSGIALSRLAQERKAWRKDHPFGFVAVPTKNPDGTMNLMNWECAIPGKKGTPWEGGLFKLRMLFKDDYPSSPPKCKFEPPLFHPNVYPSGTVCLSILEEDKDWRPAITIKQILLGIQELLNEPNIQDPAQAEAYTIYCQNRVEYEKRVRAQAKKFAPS

[25] = molecular target: Glyceraldehyde-3-phosphate dehydrogenase (Homo sapiens, UniProt P04406)
[26] = molecular target: T9, Voltage-gated N-type calcium channel alpha-1B subunit/Amyloid beta A4 precursor protein-binding family A member 1 (Homo sapiens, UniProt Q00975+Q02410); experiment: disruptors of Mint-PDZ/N-type channel peptide interaction – biochemical, HTRF, SAR follow-up (AID 2489); format: functional
[27] = molecular target: T9, Voltage-gated N-type calcium channel alpha-1B subunit/Amyloid beta A4 precursor protein-binding family A member 1; experiment: disruptors of Mint-PDZ/N-type channel peptide interaction – biochemical, HTRF, set 2, SAR follow-up (AID 434980); format: functional

Beta-2 adrenergic receptor, sequence (P07550 whole entry): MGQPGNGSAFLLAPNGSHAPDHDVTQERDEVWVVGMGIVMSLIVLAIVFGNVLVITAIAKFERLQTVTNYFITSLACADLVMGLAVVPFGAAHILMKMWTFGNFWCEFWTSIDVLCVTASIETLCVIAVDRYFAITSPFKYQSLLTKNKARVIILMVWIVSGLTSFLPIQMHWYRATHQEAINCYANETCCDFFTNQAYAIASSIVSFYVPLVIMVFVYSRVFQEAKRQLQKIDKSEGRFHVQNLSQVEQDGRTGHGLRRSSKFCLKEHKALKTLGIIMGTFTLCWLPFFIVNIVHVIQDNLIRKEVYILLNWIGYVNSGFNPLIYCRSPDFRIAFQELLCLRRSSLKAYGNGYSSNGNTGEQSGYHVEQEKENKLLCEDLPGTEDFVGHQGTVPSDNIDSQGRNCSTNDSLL

C=CCc1ccc(OCCOc2ccc(/C=N/n3cnnc3)cc2OCC)c(OC)c1
EC50 [1]: 0.587 µM (active)

CCN(CCCNC(=O)C1CCN(S(=O)(=O)N2CCC3(CC2)OCCO3)CC1)c1ccccc1
IC50 [2]: 9.69 µM
EC50 [3]: > 32 µM (inactive)
IC50 [4]: > 32 µM (inactive)
EC50 (Beta-galactosidase [5]): > 31.5 µM (inactive)
IC50 [6]: 9.46 µM (active)
EC50 (Mu-type opioid receptor): > 32 µM (inactive)

Cn1c2c(c(=O)[nH]c1=O)C(c1cccc(O)c1)C1=C(O)c3ccccc3C1=N2 (stereo not drawn)
IC50 [7]: 1.92 µM (active)
IC50 [8]: 1.87 µM (active)

CS(=O)(=O)N1CCC2(CCN(c3cccc(-c4ccccc4)c3)CC2)CC1
AC50 (Cytochrome P450 2C19): inconclusive
AC50 (Cytochrome P450 2C9 [9]): inconclusive
AC50 (Cytochrome P450 1A2): inconclusive

CNC(=O)CCc1nc(-c2ccc(C(C)(C)C)cc2)no1
IC50 (HEK293 [10]): > 80 µM (inactive)
AC50 (Cytochrome P450 2C19; read-out: AC50): 39.8 µM (inconclusive)
IC50 (HEK293 [11]): 53.1 µM (inactive)
IC50 (Jurkat): > 79 µM (inactive)
AC50 (Cytochrome P450 2C9 [12]): 0.355 µM (inconclusive)
IC50 [13]: > 80 µM (inactive)

CS(=O)(=O)c1ccc([S+]([O-])CC(=O)OCc2ccccc2)c([N+](=O)[O-])c1 (stereo not drawn)
IC50 (Beta-galactosidase [14]): > 66.6 µM (inactive)
EC50 [15]: 3.05 µM (active)
AC50 (A-375 [16]): 21 µM (active)
AC50 [17]: 5.46 µM (active)
EC50 [18]: 2.01 µM (active)

CN1C(C(=O)Nc2cccc(O)c2)=CC(c2ccco2)=NS1(=O)=O
IC50 (HEK293 [19]): > 67.6 µM (inactive)
IC50 [20]: > 67.6 µM (inactive)

O=[N+]([O-])c1ccc(/N=c2/ssnc2Cl)c([N+](=O)[O-])c1
IC50 (Phosphomannomutase 2): 58.4 µM (active)
IC50 [21]: 3.52 µM (active)

O=C(Nc1ccc(-c2cn3c(n2)SCC3)cc1)c1ccco1
AC50 (A-375 [16]): > 35 µM (active)
AC50 (A-375 [22]): > 35 µM (active)

CCOc1ccc(CNC(=O)c2ccc(NC(=O)C3=CSCCO3)cc2)cc1
EC50 [1]: 0.0608 µM (active)

COC(=O)N1CCC[C@@]2(CCN(c3ccncc3)C2)C1
AC50 (Cytochrome P450 2D6): inconclusive
AC50 (Cytochrome P450 2C9 [9]): inconclusive
AC50 (Cytochrome P450 1A2): inconclusive

Cc1ccc(O)c(NN=C2C(=O)CC(C)(C)CC2=O)c1
AC50 [23]: 10.5 µM (active)
IC50 (Nonstructural protein 1): 13.2 µM (active)
EC50 [24]: > 160 µM (inactive)

NS(=O)(=O)c1ccc2c(c1)C1C=CCC1C(c1ccc([N+](=O)[O-])cc1)N2 (stereo not drawn)
IC50 (SUMO E1/E2): > 100 µM (inactive)
IC50 [25]: > 100 µM (not active)

COc1ccccc1COC(=O)COC(=O)c1cc(-c2ccco2)nc2ccccc12
IC50 [26]: 9.09 µM (active)
IC50 (SUMO E1/E2): 12.9 µM (active)
IC50 [27]: 6.59 µM (active)

CC(=O)c1c(C)[nH]c(C(=O)Nc2ccc(Cl)c(S(=O)(=O)N(C)C)c2)c1C
IC50 (HEK293 [19]): > 67.5 µM (inactive)
IC50 [20]: > 67.5 µM (inactive)
